≈ marks a conversion by molar mass, not a printed value.
What was measured:
[1] = tested on: Candida albicans; assay: Antifungal activity against Candida albicans SC5314 assessed as inhibition of fungal growth at 4 ug/ml incubated for 18 hrs by M27-A3 based microdilution method relative to control; type: functional
[2] = tested on: Candida albicans; assay: Antifungal activity against Candida albicans SC5314 assessed as inhibition of fungal growth at 16 ug/ml incubated for 18 hrs by M27-A3 based microdilution method relative to control; type: functional
[3] = tested on: Candida albicans; assay: Antifungal activity against Candida albicans SC5314 assessed as inhibition of fungal growth at 16 ug/ml incubated for 48 hrs by M27-A3 based microdilution method relative to control; type: functional
[4] = tested on: Candida albicans; assay: Antifungal activity against Candida albicans SC5314 assessed as inhibition of fungal growth at 8 ug/ml incubated for 18 hrs by M27-A3 based microdilution method relative to control; type: functional
[5] = tested on: Candida albicans; assay: Antifungal activity against Candida albicans SC5314 assessed as inhibition of fungal growth at 8 ug/ml incubated for 48 hrs by M27-A3 based microdilution method relative to control; type: functional
[6] = tested on: Candida albicans; assay: Antifungal activity against Candida albicans SC5314 assessed as inhibition of fungal growth at 4 ug/ml incubated for 48 hrs by M27-A3 based microdilution method relative to control; type: functional
[7] = tested on: Candida albicans; assay: Antifungal activity against Candida albicans SC5314 assessed as inhibition of fungal growth at 2 ug/ml incubated for 18 hrs by M27-A3 based microdilution method relative to control; type: functional
[8] = tested on: Candida albicans; assay: Antifungal activity against Candida albicans SC5314 assessed as inhibition of fungal growth at 2 ug/ml incubated for 48 hrs by M27-A3 based microdilution method relative to control; type: functional
[9] = tested on: Candida albicans; assay: Antifungal activity against Candida albicans SC5314 assessed as inhibition of fungal growth at 1 ug/ml incubated for 18 hrs by M27-A3 based microdilution method relative to control; type: functional
[10] = tested on: Candida albicans; assay: Antifungal activity against Candida albicans SC5314 assessed as inhibition of fungal growth at 1 ug/ml incubated for 48 hrs by M27-A3 based microdilution method relative to control; type: functional
[11] = tested on: Candida albicans; assay: Antifungal activity against Candida albicans SC5314 assessed as inhibition of fungal growth at 0.5 ug/ml incubated for 18 hrs by M27-A3 based microdilution method relative to control; type: functional
[12] = tested on: Candida albicans; assay: Antifungal activity against Candida albicans SC5314 assessed as inhibition of fungal growth at 0.5 ug/ml incubated for 48 hrs by M27-A3 based microdilution method relative to control; type: functional
[13] = tested on: Candida albicans; assay: Antifungal activity against Candida albicans SC5314 assessed as inhibition of fungal growth at 0.25 ug/ml incubated for 18 hrs by M27-A3 based microdilution method relative to control; type: functional
[14] = tested on: Candida albicans; assay: Antifungal activity against Candida albicans SC5314 assessed as inhibition of fungal growth at 0.25 ug/ml incubated for 48 hrs by M27-A3 based microdilution method relative to control; type: functional
[15] = tested on: Candida albicans; assay: Antifungal activity against Candida albicans SC5314 assessed as inhibition of fungal growth at 0.125 ug/ml incubated for 18 hrs by M27-A3 based microdilution method relative to control; type: functional
[16] = tested on: Candida albicans; assay: Antifungal activity against Candida albicans SC5314 assessed as inhibition of fungal growth at 0.125 ug/ml incubated for 48 hrs by M27-A3 based microdilution method relative to control; type: functional
[17] = tested on: Candida albicans; assay: Antifungal activity against Candida albicans SC5314 assessed as inhibition of fungal growth at 0.0625 ug/ml incubated for 18 hrs by M27-A3 based microdilution method relative to control; type: functional
[18] = tested on: Candida albicans; assay: Antifungal activity against Candida albicans SC5314 assessed as inhibition of fungal growth at 0.0625 ug/ml incubated for 48 hrs by M27-A3 based microdilution method relative to control; type: functional
[19] = tested on: Candida albicans; assay: Antifungal activity against Candida albicans SC5314 assessed as inhibition of fungal growth at 0.03125 ug/ml incubated for 18 hrs by M27-A3 based microdilution method relative to control; type: functional
[20] = tested on: Candida albicans; assay: Antifungal activity against Candida albicans SC5314 assessed as inhibition of fungal growth at 0.03125 ug/ml incubated for 48 hrs by M27-A3 based microdilution method relative to control; type: functional
[21] = Toxicity in Galleria mellonella larvae assessed as melanization of larvae at 0.23 ug/ml measured every 24 hrs upto 5 days relative to control; conditions: 120 h, at 0.23 µg/mL, time < 5 day
[22] = tested on: Candida albicans; assay: Antifungal activity against Candida albicans assessed as inhibition of fungal growth measured after 48 hrs by M27-A3 based broth microdilution; type: functional
[23] = tested on: Candida albicans; assay: Antifungal activity against Candida albicans assessed as inhibition of fungal growth measured after 48 hrs in presence of exogenous ergosterol by M27-A3 based broth microdilution; type: functional

SMILES | inhibition at 4 µg/mL [1] [%] | inhibition at 16 µg/mL [2] [%] | inhibition at 16 µg/mL [3] [%] | inhibition at 8 µg/mL [4] [%] | inhibition at 8 µg/mL [5] [%] | inhibition at 4 µg/mL [6] [%] | inhibition at 2 µg/mL [7] [%] | inhibition at 2 µg/mL [8] [%] | inhibition at 1 µg/mL [9] [%] | inhibition at 1 µg/mL [10] [%] | inhibition at 0.5 µg/mL [11] [%] | inhibition at 0.5 µg/mL [12] [%] | inhibition at 0.25 µg/mL [13] [%] | inhibition at 0.25 µg/mL [14] [%] | inhibition at 0.125 µg/mL [15] [%] | inhibition at 0.125 µg/mL [16] [%] | inhibition at 0.0625 µg/mL [17] [%] | inhibition at 0.0625 µg/mL [18] [%] | inhibition at 0.03125 µg/mL [19] [%] | inhibition at 0.03125 µg/mL [20] [%] | further results
Cc1ccc(-c2nnn(CCCN3C(=O)CN=C(c4ccccc4Br)c4cc(F)ccc43)n2)cc1 | 94.7 | 100 | 95.4 | 100 | 97.6 | 95.4 | 98.1 | 96.4 | 93.8 | 95 | 92.3 | 95.8 | 97.8 | 98.2 | 98.5 | 97.2 | 99.2 | 96.5 | 100 | 100 | 
COc1ccc(-n2nnnc2SCCCCl)cc1 | 99.8 | 99.9 | 99.8 | 99.8 | 99.8 | 99.8 | 100 | 99.8 | 99.9 | 99.8 | 99.9 | 99.7 | 100 | 99.9 | 99.9 | 99.9 | 99.9 | 99.8 | 99.8 | 99.7 | 
CCC(C)n1ncn(-c2ccc(N3CCN(c4ccc(OCC5COC(Cn6cncn6)(c6ccc(Cl)cc6Cl)O5)cc4)CC3)cc2)c1=O (stereo not drawn) [ITRACONAZOLE] |  |  |  |  |  |  |  |  |  |  |  |  |  |  |  |  |  |  |  |  | Activity [21]: 13%; MIC [22]: 0.32 µg/mL (≈ 0.453 µM); MIC [23]: 0.5 µg/mL
ClCCCSc1nnnn1-c1ccccc1 | 98.8 | 98.7 | 98.9 | 98.7 | 98.8 | 98.9 | 98.5 | 98.6 | 98.5 | 98.6 | 98.3 | 98.4 | 98.8 | 98.9 | 98.6 | 98.8 | 98.6 | 98.8 | 98.8 | 98.9 | 
O=C1CN=C(c2ccccc2Br)c2cc(F)ccc2N1 | 99.2 | 98.9 | 99.1 | 99.3 | 99.1 | 99.2 | 99 | 99.1 | 99 | 99.2 | 99.2 | 99.2 | 98.9 | 99.1 | 99.1 | 99.1 | 98.7 | 98.7 | 99.1 | 99.1 | 
COc1ccc(-n2nnnc2SCCCN2C(=O)CN=C(c3ccccc3Br)c3cc(F)ccc32)cc1 | 98.8 | 98.1 | 98.5 | 98.6 | 98.7 | 98.8 | 98.7 | 98.8 | 98.8 | 98.9 | 98.7 | 98.8 | 98.5 | 98.6 | 98.8 | 98.9 | 98.7 | 98.8 | 98.8 | 98.8 | 
O=C1CN=C(c2ccccc2Br)c2cc(F)ccc2N1CCCn1nnc(-c2ccccc2)n1 | 99.6 | 98.5 | 98.4 | 98.4 | 98.5 | 98.9 | 99.6 | 98.4 | 99.4 | 98.9 | 99.5 | 99.3 | 99.8 | 99 | 99.8 | 98.4 | 99.4 | 98.6 | 100 | 100 | 
O=C1CN=C(c2ccccc2Br)c2cc(F)ccc2N1CCCSc1nnnn1-c1ccccc1 | 99.9 | 99.8 | 99.8 | 99.9 | 99.8 | 99.8 | 99.8 | 99.7 | 99.8 | 99.7 | 99.9 | 99.8 | 99.8 | 99.7 | 99.9 | 99.8 | 99.7 | 99.7 | 100 | 99.9 | 

From ChEMBL document CHEMBL5154709, “Tetrazole derivatives bearing benzodiazepine moiety-synthesis and action mode against virulence of Candida albicans” (Eur J Med Chem, 2022)
